Laboratory results reported in ChEMBL document CHEMBL1130161, “Cyclic urea amides: HIV-1 protease inhibitors with low nanomolar potency against both wild type and protease inhibitor resistant mutants of HIV” (J Med Chem, 1997).

Columns and labels:
[1] = tested on: Human immunodeficiency virus; test: Resistance of constructed mutant 84V virus was calculated as (IC90 for a mutant virus / IC90 of wt HXB2 virus).; format: functional
[2] = Resistance of constructed mutant 82F virus was calculated as (IC90 for a mutant virus / IC90 of wt HXB2 virus).; format: functional
[3] = tested on: Human immunodeficiency virus; test: Resistance of constructed mutant […]/47V/50V virus was calculated as (IC90 for a mutant virus / IC90 of wt HXB2 virus).; format: functional
[4] = tested on: Human immunodeficiency virus; test: Resistance of constructed mutant ABT538 virus was calculated as (IC90 for a mutant virus / IC90 of wt HXB2 virus); format: functional
[5] = tested on: Human immunodeficiency virus; test: Resistance of constructed mutant 82A virus was calculated as (IC90 for a mutant virus / IC90 of wt HXB2 virus).; format: functional
[6] = molecular target: Human immunodeficiency virus type 1 protease (Human immunodeficiency virus 1) (UniProt Q72874); test: Inhibitory concentration against accumulation of viral p24 antigen following infection of MT-4 cells; format: functional, cell-based; details: MT4
[7] = tested on: Human immunodeficiency virus; test: Resistance of constructed mutant MK639 virus was calculated as (IC90 for a mutant virus / IC90 of wt HXB2 virus).; format: functional
[8] = tested on: Human immunodeficiency virus; test: Resistance of constructed mutant 48V/90M virus was calculated as (IC90 for a mutant virus / IC90 of wt HXB2 virus); format: functional
[9] = molecular target: Human immunodeficiency virus type 1 protease (Human immunodeficiency virus 1, UniProt Q72874); test: Binding affinity to inhibit the purified wild-type HIV-1 Protease

With `O=C(Nc1ncc[nH]1)c1cccc(CN2C(=O)N(Cc3cccc(C(=O)Nc4ncc[nH]4)c3)[C@H](Cc3ccccc3)[C@H](O)[C@@H](O)[C@H]2Cc2ccccc2)c1` the Resistance [1] was 0.7, the Resistance [2] was 1.6 and the Resistance [3] was 0.4. The Resistance [4] was 0.2, the Resistance [5] was 2.7 and the IC90 [6] was 19 nM. It also gave a Resistance [7] of 0.4 and a Resistance [8] of 0.1.

With `O=C1N(CC2CC2)[C@H](Cc2ccccc2)[C@H](O)[C@@H](O)[C@@H](Cc2ccccc2)N1CC1CC1` the Resistance [1] was 6.6, the Resistance [2] was 4 and the Resistance [3] was 1.7. It also gave a Resistance [4] of 7.2, a Resistance [5] of 1.4 and an IC90 [6] of 2100 nM. It also gave a Resistance [7] of 11 and a Resistance [8] of 1.3.

With `O=C(Nc1nccs1)c1cccc(CN2C(=O)N(Cc3ccccc3)[C@H](Cc3ccccc3)[C@H](O)[C@@H](O)[C@H]2Cc2ccccc2)c1` the Resistance [1] was 7.2, the Resistance [2] was 3 and the Resistance [3] was 10.2. The Resistance [4] was 31, the Resistance [5] was 4.9 and the IC90 [6] was 74 nM. For the same molecule, the Resistance [7] was 10, the Resistance [8] was 1.9 and the Ki [9] was 0.074 nM.

With `O=C(Nc1ncc[nH]1)c1cccc(CN2C(=O)N(CC3CC3)[C@H](Cc3ccccc3)[C@H](O)[C@@H](O)[C@H]2Cc2ccccc2)c1` the Resistance [4] was 83, the IC90 [6] was 28 nM and the Resistance [7] was 12. It also gave a Ki [9] of 0.016 nM.

For `O=C(Nc1ncc[nH]1)c1cccc(CN2C(=O)N(Cc3ccccc3)[C@H](Cc3ccccc3)[C@H](O)[C@@H](O)[C@H]2Cc2ccccc2)c1`, the Resistance [1] was 2.9, the Resistance [2] was 0.5 and the Resistance [4] was 29. The Resistance [5] was 1, the IC90 [6] was 21 nM and the Resistance [7] was 15. It also gave a Resistance [8] of 0.6 and a Ki [9] of 0.033 nM.

In the case of `CC(C)(C)NC(=O)[C@@H]1CN(Cc2cccnc2)CCN1C[C@@H](O)C[C@@H](Cc1ccccc1)C(=O)N[C@H]1c2ccccc2C[C@H]1O.O`, the Resistance [1] is reported as 0.5, the Resistance [2] is reported as 2.8 and the Resistance [3] is reported as 1.8. For the same molecule, the Resistance [4] was 6.5, the Resistance [5] was 2.5 and the IC90 [6] was 28 nM. It also gave a Resistance [7] of 18 and a Resistance [8] of 3.6.

Work on `O=C(Nc1nc2ccccc2[nH]1)c1cccc(CN2C(=O)N(CC3CC3)[C@H](Cc3ccccc3)[C@H](O)[C@@H](O)[C@H]2Cc2ccccc2)c1` yielded a Resistance [1] of 8.4, a Resistance [2] of 2.1 and a Resistance [3] of 2.1. For the same molecule, the Resistance [4] was 86, the Resistance [5] was 1.9 and the IC90 [6] was 17 nM. For the same molecule, the Resistance [7] was 26, the Resistance [8] was 1.9 and the Ki [9] was 0.037 nM.

`O=C(Nc1nc2ccccc2[nH]1)c1cccc(CN2C(=O)N(Cc3cccc(C(=O)Nc4nc5ccccc5[nH]4)c3)[C@H](Cc3ccccc3)[C@H](O)[C@@H](O)[C@H]2Cc2ccccc2)c1` showed a Resistance [1] of 0.6, a Resistance [2] of 0.3 and a Resistance [3] of 1. The Resistance [4] was 1.2, the Resistance [5] was 0.8 and the IC90 [6] was 5.1 nM. It also gave a Resistance [7] of 0.7 and a Resistance [8] of 0.3.

`CCCCN1C(=O)N(Cc2cccc(C(=O)Nc3ncc[nH]3)c2)[C@H](Cc2ccccc2)[C@H](O)[C@@H](O)[C@H]1Cc1ccccc1` showed a Resistance [1] of 4.2, a Resistance [2] of 14.5 and a Resistance [4] of 27. For the same molecule, the Resistance [5] was 1.4, the IC90 [6] was 18 nM and the Resistance [7] was 14.5. It also gave a Resistance [8] of 1 and a Ki [9] of 0.025 nM.

Work on `CC(C)c1nc(CN(C)C(=O)N[C@H](C(=O)N[C@@H](Cc2ccccc2)C[C@H](O)[C@H](Cc2ccccc2)NC(=O)OCc2cncs2)C(C)C)cs1` [RITONAVIR] yielded a Resistance [1] of 2.4, a Resistance [2] of 8.9 and a Resistance [3] of 6. It also gave a Resistance [4] of 30, a Resistance [5] of 7.1 and a Resistance [7] of 5.5. For the same molecule, the Resistance [8] was 5.

Molecule `O=C(Nc1nccs1)c1cccc(CN2C(=O)N(CC3CC3)[C@H](Cc3ccccc3)[C@H](O)[C@@H](O)[C@H]2Cc2ccccc2)c1` has a Resistance [1] of 6.1, a Resistance [2] of 4.1 and a Resistance [3] of 11. For the same molecule, the Resistance [4] was 41, the Resistance [5] was 1.8 and the IC90 [6] was 40 nM. It also gave a Resistance [7] of 18.5 and a Resistance [8] of 0.9.

`O=C(Nc1nccs1)c1cccc(CN2C(=O)N(Cc3cccc(C(=O)Nc4nccs4)c3)[C@H](Cc3ccccc3)[C@H](O)[C@@H](O)[C@H]2Cc2ccccc2)c1` showed a Resistance [1] of 1.2, a Resistance [2] of 0.9 and a Resistance [3] of 23. The Resistance [4] was 24, the Resistance [5] was 2.2 and the IC90 [6] was 4.2 nM. It also gave a Resistance [7] of 8.7 and a Resistance [8] of 0.2.

Molecule `O=C1N(Cc2ccc(CO)cc2)[C@H](Cc2ccccc2)[C@H](O)[C@@H](O)[C@@H](Cc2ccccc2)N1Cc1ccc(CO)cc1` [DMP-323] has a Resistance [1] of 22, a Resistance [2] of 7.1 and a Resistance [3] of 11. For the same molecule, the Resistance [4] was 93, the Resistance [5] was 2.8 and the IC90 [6] was 95 nM. For the same molecule, the Resistance [7] was 18 and the Resistance [8] was 0.3.

`Nc1cccc(CN2C(=O)N(Cc3cccc(N)c3)[C@H](Cc3ccccc3)[C@H](O)[C@@H](O)[C@H]2Cc2ccccc2)c1` [MOZENAVIR] showed a Resistance [1] of 9.9, a Resistance [2] of 5.3 and a Resistance [3] of 7.5. For the same molecule, the Resistance [4] was 49, the Resistance [5] was 2.5 and the IC90 [6] was 120 nM. The Resistance [7] was 27, the Resistance [8] was 1.5 and the Ki [9] was 0.34 nM.

In the case of `CC(C)[C@H](NC(=O)OCc1ccccc1)C(=O)N[C@@H](Cc1ccccc1)[C@H](O)[C@@H](O)[C@@H](Cc1ccccc1)NC(=O)[C@H](NC(=O)OCc1ccccc1)C(C)C`, the Resistance [1] is reported as 2.1, the Resistance [2] is reported as 1.8 and the Resistance [3] is reported as 6.5. It also gave a Resistance [4] of 13, a Resistance [5] of 6 and an IC90 [6] of 195 nM. For the same molecule, the Resistance [7] was >150, the Resistance [8] was 1.3 and the Ki [9] was 0.25 nM.

Molecule `CC(C)CN(C[C@@H](O)[C@H](Cc1ccccc1)NC(=O)O[C@H]1CCOC1)S(=O)(=O)c1ccc(N)cc1` has a Resistance [1] of 1.5, a Resistance [2] of 1.9 and a Resistance [3] of 39. For the same molecule, the Resistance [4] was 13, the Resistance [5] was 2.2 and the IC90 [6] was 81 nM. The Resistance [7] was 3.8 and the Resistance [8] was 1.1.

Work on `CC(C)(C)NC(=O)[C@@H]1C[C@@H]2CCCC[C@@H]2CN1C[C@@H](O)[C@H](Cc1ccccc1)NC(=O)[C@H](CC(N)=O)NC(=O)c1ccc2ccccc2n1` yielded a Resistance [1] of 0.7, a Resistance [2] of 0.4 and a Resistance [4] of 0.6. For the same molecule, the Resistance [5] was 0.9, the IC90 [6] was 15 nM and the Resistance [7] was 5.3. For the same molecule, the Resistance [8] was 20.
